In US20160002247A1, “8-SUBSTITUTED IMIDAZOPYRIMIDINONE DERIVATIVE HAVING AUTOTAXIN INHIBITORY ACTIVITY” (THE UNIVERSITY OF TOKYO, priority 2013, published 2016):

These molecules were tested against T1, Human autotaxin enzyme (Homo sapiens, UniProt Q13822) (assay: Evaluation of autotaxin inhibitor, Method C (Test Example 3): 18:0 Lyso PC, choline assay, Resorufin fluorescence). Settings: Assay Method C (Test Example 3), human autotaxin, 18:0 Lyso PC substrate; read-out: Inhibitory Activity (autotaxin enzyme inhibitory activity, IC50 class).
T1 construct: purchased R&D System
Type: biochemical
Procedure, shortened: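 Human autotaxin in Tris-HCl pH 7.5, 150 mM NaCl, 5 mM MgCl2, 0.05% Triton X-100 reacted 2 h at room temperature with 18:0 Lyso PC (200 μM solution added). Released choline detected via choline oxidase/peroxidase/Amplex-type reagent, resorufin fluorescence (ex 531/em 598 nm); inhibition vs no-compound and no-enzyme controls, concentration-response curve.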

Row | Structure (SMILES) | IC50 [nM]
1 | CCCCCn1c(C)cc(=O)n2cc(-c3ccc(C(=O)O)cc3)nc12 [Compound 166] | > 1000
2 | CCCCCn1c(NCCC(=O)NCCC(=O)O)cc(=O)n2cc(-c3ccc(Cl)cc3)nc12 [Compound 617] | 100 to 1000
3 | CCCCCn1c(-c2ccc(SC)cc2)cc(=O)n2cc(-c3ccc(Cl)cc3)nc12 [Compound 432] | 100 to 1000
4 | CCCCCn1c(OCC2CCCN2C(=O)OC(C)(C)C)cc(=O)n2cc(-c3ccc(Cl)cc3)nc12 (centres unmarked) [Compound 554] | 100 to 1000
5 | CCCCCn1c(-c2ccc(C(=O)OC)cc2)cc(=O)n2cc(-c3ccc(Cl)cc3)nc12 [Compound 529] | 100 to 1000
6 | CCCCCn1c(N2CCC[C@H]2C(=O)N[C@H](C(=O)O)C(c2ccccc2)c2ccccc2)cc(=O)n2cc(-c3ccc(Cl)cc3)nc12 [Compound 727] | 100 to 1000
7 | CCCCCn1c(O[C@@H]2CO[C@H]3[C@@H]2OC[C@H]3O)cc(=O)n2cc(-c3ccc(Cl)cc3)nc12 [Compound 544] | 100 to 1000
8 | CCCCCn1c(N2CCC(c3ccccc3)C2)cc(=O)n2cc(-c3ccc(Cl)cc3)nc12 (centres unmarked) [Compound 327] | 100 to 1000
9 | CCCCCn1c(N2CCC[C@H]2C(=O)NCCCCCN(C)C)cc(=O)n2cc(-c3ccc(Cl)cc3)nc12 [Compound 653] | 100 to 1000
10 | CCCCCn1c(N2CCC(Cc3ccccc3)C2)cc(=O)n2cc(-c3ccc(Cl)cc3)nc12 (centres unmarked) [Compound 325] | 100 to 1000
11 | CCCCCn1c(N2CCN(C(=O)OC(C)(C)C)C[C@@H]2C(=O)NCC(=O)O)cc(=O)n2cc(-c3ccc(Cl)cc3)nc12 [Compound 631] | 100 to 1000
12 | CCCCCn1c(NCCC(=O)O)cc(=O)n2cc(-c3ccc(Cl)cc3)nc12 [Compound 601] | 100 to 1000
13 | CCCCCn1c(N2CCCC(O)(c3ccc(F)cc3)C2)cc(=O)n2cc(-c3ccc(Cl)cc3)nc12 (centres unmarked) [Compound 317] | > 1000
14 | CCCCCn1c(N2CCC[C@H]2C(=O)NCCCN2CCCC2)cc(=O)n2cc(-c3ccc(Cl)cc3)nc12 [Compound 648] | > 1000
15 | CCCCCn1c(N2CCC[C@H]2C(=O)N2CCCC(C(N)=O)C2)cc(=O)n2cc(-c3ccc(Cl)cc3)nc12 (some centres unmarked) [Compound 695] | 100 to 1000
16 | CCCCCn1c(N2CCC[C@@]2(C)C(=O)NCCC(=O)O)cc(=O)n2cc(-c3ccc(Cl)cc3)nc12 [Compound 623] | 100 to 1000
17 | CCCCCn1c(N2CCC[C@H]2C(=O)Nc2ccccc2)cc(=O)n2cc(-c3ccc(Cl)cc3)nc12 [Compound 318] | 100 to 1000
18 | CCCCCn1c(-c2ccccc2NS(C)(=O)=O)cc(=O)n2cc(-c3ccc(Cl)cc3)nc12 [Compound 440] | 100 to 1000
19 | CCCCCn1c(N2CCCC(C3CCCCC3)C2)cc(=O)n2cc(-c3ccc(Cl)cc3)nc12 (centres unmarked) [Compound 307] | > 1000
20 | CCCCCn1c(N2CCC[C@H]2C(=O)NCCCN(C)C)cc(=O)n2cc(-c3ccc(Cl)cc3)nc12 [Compound 646] | > 1000
21 | CCCCCn1c(-c2ccc(CCCO)cc2)cc(=O)n2cc(-c3ccc(Cl)cc3)nc12 [Compound 446] | 100 to 1000
22 | CCCCCn1c(-c2ccc(OC)nc2)cc(=O)n2cc(-c3ccc(Cl)cc3)nc12 [Compound 456] | 10 to 100
23 | CCCCCn1c(-c2ccc(C(=O)Nc3ncco3)cc2)cc(=O)n2cc(-c3ccc(Cl)cc3)nc12 [Compound 488] | 10 to 100
24 | CCCCCn1c(N2CCCC(CC(=O)OCC)C2)cc(=O)n2cc(-c3ccc(Cl)cc3)nc12 (centres unmarked) [Compound 315] | 100 to 1000

Other lines, results leading:

Row | IC50 [nM] | Structure (SMILES)
25 | 10 to 100 | CCCCCn1c(-c2ccc(S(=O)(=O)O)cc2)cc(=O)n2cc(-c3ccc(Cl)cc3)nc12 [Compound 429]
26 | 10 to 100 | O=C(O)c1ccc(-c2cc(=O)n3cc([C@H]4CC[C@H](C(F)(F)F)CC4)nc3n2CCCC(F)(F)F)cc1 [Compound 164]
27 | 10 to 100 | CCCCCn1c(N2CCNC(C(=O)NCCC(=O)O)C2)cc(=O)n2cc(-c3ccc(Cl)cc3)nc12 (centres unmarked) [Compound 662]
28 | 10 to 100 | CCCCCn1c(-c2cnc(O)nc2)cc(=O)n2cc(-c3ccc(Cl)cc3)nc12 [Compound 463]
29 | < 10 | CCCCCn1c(N2CCC[C@H]2C(=O)N[C@H](C(=O)O)c2ccccc2)cc(=O)n2cc(-c3ccc(Cl)cc3)nc12 [Compound 732]
30 | 10 to 100 | CN(C)CCNC(=O)c1ccc(-c2cc(=O)n3cc(-c4ccc(Cl)cc4)nc3n2CCCCC#N)cc1 [Compound 378]
31 | 10 to 100 | CCCCCn1c(O[C@H]2CCNC2)cc(=O)n2cc(-c3ccc(Cl)cc3)nc12 [Compound 572]
32 | < 10 | CCCCCn1c(N2CCC[C@H](C(=O)NCC(=O)O)C2)cc(=O)n2cc(-c3ccc(Cl)cc3)nc12 [Compound 629]
33 | < 10 | CCCCCn1c(-c2ccc(C(=O)NCCc3ccc(S(C)(=O)=O)cc3)cc2)cc(=O)n2cc(-c3ccc(Cl)cc3)nc12 [Compound 512]
34 | < 10 | CCCCCn1c(-c2cnc(C(=O)NCCN3CC4(COC4)C3)nc2)cc(=O)n2cc(-c3ccc(Cl)cc3)nc12 [Compound 535]
35 | 10 to 100 | CCCCCn1c(N2C[C@@H](F)C[C@H]2C(=O)NC(C)(C)CC(=O)OCC)cc(=O)n2cc(-c3ccc(Cl)cc3)nc12 [Compound 596]
36 | 10 to 100 | CCCCCn1c(NCCCC(=O)O)cc(=O)n2cc(-c3ccc(Cl)cc3)nc12 [Compound 607]
37 | 10 to 100 | CCCCCn1c(-c2cc(NC(C)=O)cc(C(=O)O)c2)cc(=O)n2cc(-c3ccc(Cl)cc3)nc12 [Compound 427]
38 | < 10 | CCCCCn1c(N2C[C@@H](O)C[C@H]2C(=O)NCCC(=O)O)cc(=O)n2cc(-c3ccc(Cl)cc3)nc12 [Compound 582]
39 | 10 to 100 | CCCCCn1c(OC2CCN(CC(=O)O)CC2)cc(=O)n2cc(-c3ccc(Cl)cc3)nc12 [Compound 540]
40 | 10 to 100 | CCCCCn1c(-c2ccc(C(=O)Nc3ccncc3)cc2)cc(=O)n2cc(-c3ccc(Cl)cc3)nc12 [Compound 466]
41 | 10 to 100 | CCCCCn1c(-c2ccc(C(=O)NCc3ccco3)cc2)cc(=O)n2cc(-c3ccc(Cl)cc3)nc12 [Compound 506]

Row | IC50 [nM] | Structure (SMILES)
42 | < 10 | CCCCCn1c(N2CCC[C@H]2C(=O)NC(C)(C)C(C)C(=O)O)cc(=O)n2cc(-c3ccc(Cl)cc3)nc12 (some centres unmarked) [Compound 676]
43 | 10 to 100 | CCCCCn1c(N2CCC[C@H]2C(=O)NCCN2CCCC2=O)cc(=O)n2cc(-c3ccc(Cl)cc3)nc12 [Compound 341]
44 | < 10 | CCCCCn1c(N2CCC[C@H]2C(=O)N[C@@H](Cc2cccc3ccccc23)C(=O)O)cc(=O)n2cc(-c3ccc(Cl)cc3)nc12 [Compound 724]
45 | 10 to 100 | CCCCCn1c(O[C@H]2CCN(CC(=O)O)C2)cc(=O)n2cc(-c3ccc(Cl)cc3)nc12 [Compound 575]
46 | < 10 | CCCCCn1c(N2CCC[C@H]2C(=O)NC(C)C(=O)O)cc(=O)n2cc(-c3ccc(Cl)cc3)nc12 (some centres unmarked) [Compound 737]
47 | 10 to 100 | CCCCCn1c(-c2ccc(C(=O)NCCS(N)(=O)=O)cc2)cc(=O)n2cc(-c3ccc(Cl)cc3)nc12 [Compound 499]
48 | 10 to 100 | CCCCCn1c(-c2ccc(C(=O)NCCNC)cc2)cc(=O)n2cc(-c3ccc(Cl)cc3)nc12 [Compound 522]
49 | 10 to 100 | N#CCCCCn1c(-c2ccc(C(=O)NCCN3CCOCC3)cc2)cc(=O)n2cc(-c3ccc(C(F)(F)F)cc3)nc12 [Compound 376]
50 | < 10 | CC(C)(C)[C@H](NC(=O)[C@@H]1CCCN1c1cc(=O)n2cc(-c3ccc(Cl)cc3)nc2n1Cc1ccccc1)C(=O)O [Compound 746]
51 | < 10 | CCCCCn1c(N2C[C@@H](O)C[C@H]2C(=O)NCC(=O)O)cc(=O)n2cc(-c3ccc(Cl)cc3)nc12 [Compound 776]
52 | 10 to 100 | CCCCCn1c(-c2ccc(C(=O)NCCc3c[nH]cn3)cc2)cc(=O)n2cc(-c3ccc(Cl)cc3)nc12 [Compound 523]
53 | < 10 | CCCCCn1c(-c2cnc(C(=O)O)nc2)cc(=O)n2cc(-c3ccc(Cl)cc3)nc12 [Compound 533]
54 | 10 to 100 | CCCCCn1c(C2=CCN(S(C)(=O)=O)CC2)cc(=O)n2cc(-c3ccc(Cl)cc3)nc12 [Compound 547]
55 | 10 to 100 | CCCCCn1c(N2CCC[C@H]2C(=O)N2CCNC(=O)C2)cc(=O)n2cc(-c3ccc(Cl)cc3)nc12 [Compound 697]
56 | 10 to 100 | CCCCCn1c(N2C[C@H](F)C[C@H]2C(=O)NCCC(=O)O)cc(=O)n2cc(-c3ccc(Cl)cc3)nc12 [Compound 579]
57 | 10 to 100 | CCCCCn1c(N2CCN(CCC(=O)c3ccc4[nH]c(=O)oc4c3)CC2)cc(=O)n2cc(-c3ccc(Cl)cc3)nc12 [Compound 190]

Same assay, conditions: Assay Method C, human autotaxin, 18:0 Lyso PC substrate; read-out: Inhibitory Activity

Row | IC50 [nM] | Structure (SMILES)
58 | 100 to 1000 | CC(C)(C)OC(=O)NCCNC(=O)Cc1cn(CCCC(F)(F)F)c2nc(-c3ccc(Cl)cc3)cn2c1=O [Compound 840]
59 | > 1000 | N#CCCCNC(=O)Cc1cn(CCCC(F)(F)F)c2nc(-c3ccc(Cl)cc3)cn2c1=O [Compound 832]
60 | 100 to 1000 | CCCCCn1c(N2CCC[C@H]2C(=O)Nc2cccc(-c3nn[nH]n3)c2)cc(=O)n2cc(-c3ccc(Cl)cc3)nc12 [Compound 787]
61 | 10 to 100 | CC1CCCCN1C(=O)Cc1cn(CCCC(F)(F)F)c2nc(-c3ccc(Cl)cc3)cn2c1=O (centres unmarked) [Compound 836]
62 | 100 to 1000 | CCCCCn1c(N2CCC[C@H]2C(=O)Nc2ccc(O)c(OC)c2)cc(=O)n2cc(-c3ccc(Cl)cc3)nc12 [Compound 793]
63 | 100 to 1000 | CCOC(=O)c1cccc(Cc2cn(CCCCC#N)c3nc(-c4ccc(Cl)cc4)cn3c2=O)c1 [Compound 821]
64 | > 1000 | CCOC(=O)c1cccc(Cc2cn(CC3CC3)c3nc(-c4ccc(Cl)cc4)cn3c2=O)c1 [Compound 822]
65 | 100 to 1000 | CCCCCn1c(N2CCC[C@H]2C(=O)Nc2ccccc2-c2nn[nH]n2)cc(=O)n2cc(-c3ccc(Cl)cc3)nc12 [Compound 791]
66 | > 1000 | O=C(Cc1cn(CCCC(F)(F)F)c2nc(-c3ccc(Cl)cc3)cn2c1=O)N(CCO)CCO [Compound 833]

Same assay, conditions: Assay Method: Method C (Test Example 3); read-out: Inhibitory Activity (Enzyme Inhibitory Activity, IC50)

Row | IC50 [nM] | Structure (SMILES)
67 | 100 to 1000 | CCCC(=O)Cn1c(C)cc(=O)n2cc(-c3ccc(Cl)cc3)nc12 [Compound 41]
68 | 100 to 1000 | Cc1cc(=O)n2cc(-c3ccc(Cl)cc3)nc2n1CCCCC#N [Compound 63]
